From patent publication US12083124B2 (Incyte Corporation, priority 2019, dated 2024)
Read-outs that look alike come from different tables or passages of the source.

Assays:
[1] = target: wild-type un-phosphorylated FGFR4 (Homo sapiens, UniProt P22455); assay: FGFR Enzymatic Assay (FRET peptide phosphorylation), FGFR4
[2] = target: wild-type un-phosphorylated FGFR1 (Homo sapiens, UniProt P11362); assay: FGFR Enzymatic Assay (FRET peptide phosphorylation), FGFR1; conditions: pre-incubated for 4 hours
[3] = target: wild-type un-phosphorylated FGFR2 (Homo sapiens, UniProt P21802); assay: FGFR Enzymatic Assay (FRET peptide phosphorylation), FGFR2
[4] = target: wild-type un-phosphorylated FGFR3 (Homo sapiens, UniProt P22607); assay: FGFR Enzymatic Assay (FRET peptide phosphorylation), FGFR3
[5] = FGFR1, wild-type un-phosphorylated FGFR1
[6] = read-out: FGFR2, wild-type un-phosphorylated FGFR2, pre-incubated for 4 hours
[7] = read-out: FGFR4, wild-type un-phosphorylated FGFR4, pre-incubated for 4 hours
[8] = read-out: FGFR1, wild-type un-phosphorylated FGFR1

wild-type un-phosphorylated FGFR1, sequence (P11362 22-822): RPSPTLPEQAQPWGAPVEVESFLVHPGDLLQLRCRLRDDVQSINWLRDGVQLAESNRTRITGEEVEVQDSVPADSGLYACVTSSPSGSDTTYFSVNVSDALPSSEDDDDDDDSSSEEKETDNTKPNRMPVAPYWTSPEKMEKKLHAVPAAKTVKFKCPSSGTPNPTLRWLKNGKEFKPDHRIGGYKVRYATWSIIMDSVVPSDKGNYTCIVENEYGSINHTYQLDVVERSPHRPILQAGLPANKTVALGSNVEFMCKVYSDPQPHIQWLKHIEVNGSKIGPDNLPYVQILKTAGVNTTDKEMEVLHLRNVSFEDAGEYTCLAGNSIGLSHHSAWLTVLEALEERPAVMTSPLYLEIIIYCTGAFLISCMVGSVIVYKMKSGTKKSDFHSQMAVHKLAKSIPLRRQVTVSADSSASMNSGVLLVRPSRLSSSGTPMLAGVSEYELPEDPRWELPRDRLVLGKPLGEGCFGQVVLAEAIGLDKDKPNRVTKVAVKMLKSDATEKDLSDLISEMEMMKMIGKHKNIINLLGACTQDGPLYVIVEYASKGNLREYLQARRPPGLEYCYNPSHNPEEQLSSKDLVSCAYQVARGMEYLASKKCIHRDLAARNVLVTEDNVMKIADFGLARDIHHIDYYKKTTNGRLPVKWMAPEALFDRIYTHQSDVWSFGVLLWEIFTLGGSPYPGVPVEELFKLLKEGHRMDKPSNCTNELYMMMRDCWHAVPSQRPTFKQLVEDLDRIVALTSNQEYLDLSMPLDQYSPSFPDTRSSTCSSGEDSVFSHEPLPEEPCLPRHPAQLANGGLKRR
wild-type un-phosphorylated FGFR2, sequence (P21802 22-821): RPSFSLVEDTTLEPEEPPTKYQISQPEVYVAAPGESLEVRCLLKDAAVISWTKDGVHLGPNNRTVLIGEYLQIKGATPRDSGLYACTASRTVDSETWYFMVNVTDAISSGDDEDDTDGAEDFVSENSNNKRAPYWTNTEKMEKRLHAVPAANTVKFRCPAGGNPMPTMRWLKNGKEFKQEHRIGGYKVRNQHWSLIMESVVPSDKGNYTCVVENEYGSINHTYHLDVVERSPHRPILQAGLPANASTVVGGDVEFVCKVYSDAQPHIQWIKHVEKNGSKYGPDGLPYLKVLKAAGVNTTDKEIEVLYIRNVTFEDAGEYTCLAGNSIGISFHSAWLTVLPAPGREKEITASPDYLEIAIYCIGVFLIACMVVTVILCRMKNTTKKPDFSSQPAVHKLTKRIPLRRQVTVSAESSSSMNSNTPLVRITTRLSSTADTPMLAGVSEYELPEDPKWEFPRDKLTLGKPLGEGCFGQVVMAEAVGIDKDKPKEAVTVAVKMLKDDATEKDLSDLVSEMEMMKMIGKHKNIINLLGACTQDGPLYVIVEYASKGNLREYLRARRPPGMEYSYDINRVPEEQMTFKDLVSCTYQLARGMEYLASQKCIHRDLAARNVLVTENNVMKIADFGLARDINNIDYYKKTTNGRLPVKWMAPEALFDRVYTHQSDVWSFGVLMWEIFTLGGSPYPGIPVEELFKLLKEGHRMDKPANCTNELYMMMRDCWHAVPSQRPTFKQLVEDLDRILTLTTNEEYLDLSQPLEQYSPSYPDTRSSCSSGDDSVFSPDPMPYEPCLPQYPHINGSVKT
wild-type un-phosphorylated FGFR3, sequence (P22607 23-806): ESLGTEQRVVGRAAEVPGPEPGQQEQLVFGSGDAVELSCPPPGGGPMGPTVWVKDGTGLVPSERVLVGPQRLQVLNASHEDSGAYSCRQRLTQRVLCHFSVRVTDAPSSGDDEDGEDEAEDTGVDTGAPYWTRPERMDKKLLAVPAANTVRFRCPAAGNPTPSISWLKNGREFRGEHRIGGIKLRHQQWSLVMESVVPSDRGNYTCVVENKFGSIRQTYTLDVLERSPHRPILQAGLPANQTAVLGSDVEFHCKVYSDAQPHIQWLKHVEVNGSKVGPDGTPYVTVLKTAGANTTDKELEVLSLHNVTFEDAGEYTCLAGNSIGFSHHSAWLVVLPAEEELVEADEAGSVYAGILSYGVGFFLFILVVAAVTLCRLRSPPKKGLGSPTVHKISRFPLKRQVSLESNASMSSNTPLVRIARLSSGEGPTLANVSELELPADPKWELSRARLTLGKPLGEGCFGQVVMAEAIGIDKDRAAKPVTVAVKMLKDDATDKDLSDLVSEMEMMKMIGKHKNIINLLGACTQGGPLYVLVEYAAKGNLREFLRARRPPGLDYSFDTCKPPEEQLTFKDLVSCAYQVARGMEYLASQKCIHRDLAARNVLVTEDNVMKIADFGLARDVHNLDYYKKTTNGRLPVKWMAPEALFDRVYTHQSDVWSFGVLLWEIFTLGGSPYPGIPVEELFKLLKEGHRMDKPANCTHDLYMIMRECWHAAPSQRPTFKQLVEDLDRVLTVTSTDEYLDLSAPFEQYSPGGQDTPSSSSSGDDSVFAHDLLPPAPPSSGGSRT
wild-type un-phosphorylated FGFR4, sequence (P22455 22-802): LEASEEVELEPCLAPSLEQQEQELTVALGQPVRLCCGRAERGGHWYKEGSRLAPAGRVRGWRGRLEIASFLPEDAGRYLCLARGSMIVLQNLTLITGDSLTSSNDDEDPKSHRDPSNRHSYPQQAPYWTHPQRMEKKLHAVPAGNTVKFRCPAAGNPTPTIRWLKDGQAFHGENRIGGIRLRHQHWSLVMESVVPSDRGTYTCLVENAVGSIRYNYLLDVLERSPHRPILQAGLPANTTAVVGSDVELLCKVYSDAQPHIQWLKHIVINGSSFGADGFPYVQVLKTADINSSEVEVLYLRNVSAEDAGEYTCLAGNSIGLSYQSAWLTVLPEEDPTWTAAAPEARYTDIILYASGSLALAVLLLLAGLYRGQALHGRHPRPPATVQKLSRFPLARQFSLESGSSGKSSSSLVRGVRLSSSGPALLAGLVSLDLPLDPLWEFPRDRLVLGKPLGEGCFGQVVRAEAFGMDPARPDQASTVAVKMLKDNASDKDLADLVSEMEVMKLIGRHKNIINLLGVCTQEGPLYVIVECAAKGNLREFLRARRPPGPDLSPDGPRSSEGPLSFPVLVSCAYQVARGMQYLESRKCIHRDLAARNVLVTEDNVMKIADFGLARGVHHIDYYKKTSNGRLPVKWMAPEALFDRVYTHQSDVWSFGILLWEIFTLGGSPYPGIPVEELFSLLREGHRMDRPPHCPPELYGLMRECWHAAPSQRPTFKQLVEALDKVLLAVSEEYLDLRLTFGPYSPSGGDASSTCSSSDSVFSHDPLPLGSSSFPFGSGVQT

Compound	IC50 [1]	IC50 [2, 5]	IC50 [3, 6]	IC50 [4]	IC50 [3]	IC50 [1, 7]	IC50 [2, 8]
COc1cc2[nH]nc(-c3ccc(N4CCOCC4)nc3)c2nc1-c1cccc(CC#N)c1C [Example 56, 2-(3-(6-Methoxy-3-(6-morpholinopyridin-3-yl)-1H-pyrazolo[4,3-b]pyridin-5-yl)-2-methylphenyl)acetonitrile]	> 100 nM	> 100 nM	6 to 40 nM	< 6 nM	–	–	–
COc1cc2[nH]nc(-c3ccc(N4CCOCC4)nc3)c2nc1-c1cccc2c1CCC2 [Example 58, 4-(5-(5-(2,3-Dihydro-1H-inden-4-yl)-6-methoxy-1H-pyrazolo[4,3-b]pyridin-3-yl)pyridin-2-yl)morpholine]	40 to 100 nM	40 to 100 nM	–	< 6 nM	< 6 nM	–	–
COc1cc2[nH]nc(-c3ccc(N4CCN(C(N)=O)CC4)nc3)c2nc1-c1cccc2c1CCC2 [Example 60, 4-(5-(5-(2,3-Dihydro-1H-inden-4-yl)-6-methoxy-1H-pyrazolo[4,3-b]pyridin-3-yl)pyridin-2-yl)piperazine-1-carboxamide]	–	–	–	< 6 nM	< 6 nM	6 to 40 nM	6 to 40 nM
CCN1CCN(c2ccc(-c3n[nH]c4cc(OC)c(-c5cccc6c5CCC6)nc34)cc2)CC1 [Example 63, 5-(2,3-Dihydro-1H-inden-4-yl)-3-(4-(4-ethylpiperazin-1-yl)phenyl)-6-methoxy-1H-pyrazolo[4,3-b]pyridine]	40 to 100 nM	–	–	< 6 nM	< 6 nM	–	6 to 40 nM
COc1cc2[nH]nc(-c3cnn(Cc4ccccn4)c3)c2nc1-c1cccc(C)c1C [Example 66, 5-(2,3-Dimethylphenyl)-6-methoxy-3-(1-(pyridin-2-ylmethyl)-1H-pyrazol-4-yl)-1H-pyrazolo[4,3-b]pyridine]	> 100 nM	> 100 nM	–	< 6 nM	< 6 nM	–	–
COc1cc2[nH]nc(-c3ccc(C4CCN(C(=O)[C@H](C)O)CC4)nc3)c2nc1-c1cccc(C)c1C [Example 77, (S)-1-(4-(5-(5-(2,3-Dimethylphenyl)-6-methoxy-1H-pyrazolo[4,3-b]pyridin-3-yl)pyridin-2-yl)piperidin-1-yl)-2-hydroxypropan-1-one]	> 100 nM	> 100 nM	–	< 6 nM	< 6 nM	–	–
COc1cc2[nH]nc(-c3ccc(C4CCN(C(=O)CO)CC4)nc3)c2nc1-c1cccc(C)c1C [Example 78, 1-(4-(5-(5-(2,3-Dimethylphenyl)-6-methoxy-1H-pyrazolo[4,3-b]pyridin-3-yl)pyridin-2-yl)piperidin-1-yl)-2-hydroxyethan-1-one]	> 100 nM	> 100 nM	–	< 6 nM	< 6 nM	–	–
COc1cc2[nH]nc(-c3ccc(N4CCN5C[C@@H](O)C[C@@H]5C4)nc3)c2nc1-c1cccc(C)c1C [Example 85, (7S,8aR)-2-(5-(5-(2,3-Dimethylphenyl)-6-methoxy-1H-pyrazolo[4,3-b]pyridin-3-yl)pyridin-2-yl)octahydropyrrolo[1,2-a]pyrazin-7-ol]	40 to 100 nM	40 to 100 nM	–	< 6 nM	< 6 nM	–	–
COc1cc2[nH]nc(-c3ccc(N4CCN5C[C@H](O)C[C@H]5C4)nc3)c2nc1-c1cccc(C)c1C [Example 87, (7R,8aS)-2-(5-(5-(2,3-Dimethylphenyl)-6-methoxy-1H-pyrazolo[4,3-b]pyridin-3-yl)pyridin-2-yl)octahydropyrrolo[1,2-a]pyrazin-7-ol]	40 to 100 nM	40 to 100 nM	–	< 6 nM	< 6 nM	–	–
COCCOc1ccc(-c2n[nH]c3cc(OC)c(-c4cccc5c4CC(O)C5)nc23)cn1 (stereo not shown) [Example 95, 4-(6-Methoxy-3-(6-(2-methoxyethoxy)pyridin-3-yl)-1H-pyrazolo[4,3-b]pyridin-5-yl)-2,3-dihydro-1H-inden-2-ol]	> 100 nM	40 to 100 nM	6 to 40 nM	< 6 nM	–	–	–

Second part, the molecule after the results:

IC50 [1]	IC50 [2, 5]	IC50 [3, 6]	IC50 [4]	IC50 [3]	IC50 [1, 7]	IC50 [2, 8]	Compound
> 100 nM	> 100 nM	6 to 40 nM	< 6 nM	–	–	–	COc1cc2[nH]nc(-c3ccc(N4CCOCC4)nc3)c2nc1-c1cccc(C)c1C [Example 44, 4-(5-(5-(2,3-Dimethylphenyl)-6-methoxy-1H-pyrazolo[4,3-b]pyridin-3-yl)pyridin-2-yl)morpholine]
> 100 nM	> 100 nM	6 to 40 nM	< 6 nM	–	–	–	COc1cc2[nH]nc(-c3cnn(C4CN(C(=O)N(C)C)C4)c3)c2nc1-c1cccc(C)c1F [Example 52, 3-(4-(5-(2-Fluoro-3-methylphenyl)-6-methoxy-1H-pyrazolo[4,3-b]pyridin-3-yl)-1H-pyrazol-1-yl)-N,N-dimethylazetidine-1-carboxamide]
> 100 nM	> 100 nM	–	< 6 nM	< 6 nM	–	–	COc1cc2[nH]nc(-c3ccc(N4CCCC4)nc3)c2nc1-c1cccc2c1CCC2 [Example 57, 5-(2,3-Dihydro-1H-inden-4-yl)-6-methoxy-3-(6-(pyrrolidin-1-yl)pyridin-3-yl)-1H-pyrazolo[4,3-b]pyridine]
–	–	–	< 6 nM	< 6 nM	6 to 40 nM	6 to 40 nM	CCNC(=O)N1CCN(c2ccc(-c3n[nH]c4cc(OC)c(-c5cccc6c5CCC6)nc34)cn2)CC1 [Example 59, 4-(5-(5-(2,3-Dihydro-1H-inden-4-yl)-6-methoxy-1H-pyrazolo[4,3-b]pyridin-3-yl)pyridin-2-yl)-N-ethylpiperazine-1-carboxamide]
> 100 nM	40 to 100 nM	–	< 6 nM	< 6 nM	–	–	COc1cc2[nH]nc(-c3ccc(N4CCN(C(C)=O)CC4)cc3)c2nc1-c1cccc2c1CCC2 [Example 61, 1-(4-(4-(5-(2,3-Dihydro-1H-inden-4-yl)-6-methoxy-1H-pyrazolo[4,3-b]pyridin-3-yl)phenyl)piperazin-1-yl)ethan-1-one]
> 100 nM	–	–	< 6 nM	< 6 nM	–	6 to 40 nM	COc1cc2[nH]nc(-c3ccc(N4CCN(C(C)C)CC4)cc3)c2nc1-c1cccc2c1CCC2 [Example 62, 5-(2,3-Dihydro-1H-inden-4-yl)-3-(4-(4-isopropylpiperazin-1-yl)phenyl)-6-methoxy-1H-pyrazolo[4,3-b]pyridine]
40 to 100 nM	40 to 100 nM	–	< 6 nM	< 6 nM	–	–	COc1cc2[nH]nc(-c3cnn(C4CN(C(=O)N(C)C)C4)c3)c2nc1-c1cccc(C)c1C [Example 72, 3-(4-(5-(2,3-Dimethylphenyl)-6-methoxy-1H-pyrazolo[4,3-b]pyridin-3-yl)-1H-pyrazol-1-yl)-N,N-dimethylazetidine-1-carboxamide]
> 100 nM	40 to 100 nM	–	< 6 nM	< 6 nM	–	–	COc1cc2[nH]nc(-c3cnn(C)c3)c2nc1-c1cccc2c1CC(F)C2 (stereo not shown) [Example 84, 5-(2-Fluoro-2,3-dihydro-1H-inden-4-yl)-6-methoxy-3-(1-methyl-1H-pyrazol-4-yl)-1H-pyrazolo[4,3-b]pyridine]
> 100 nM	40 to 100 nM	6 to 40 nM	< 6 nM	–	–	–	COc1cc2[nH]nc(-c3ccc(OC4CCOCC4)nc3)c2nc1-c1cccc2c1CC(O)C2 (stereo not shown) [Example 96, 4-(6-Methoxy-3-(6-((tetrahydro-2H-pyran-4-yl)oxy)pyridin-3-yl)-1H-pyrazolo[4,3-b]pyridin-5-yl)-2,3-dihydro-1H-inden-2-ol]
